Columns and labels:
[1] = tested on: β2-adrenoceptor (trachea); experiment: β2-adrenoceptor antagonism, trachea, pA2; design: species or system rat; details: Schild plot, mean ± SEM of six to eight experiments
Description: (§1) When the spontaneously beating rate of right atria reached a certain stability, cumulative administration of L-isoproterenol from 1×10^−10˜3×10^−10 M caused the heart rate to increase continuously, and a cumulative dose-response curve was obtained. Then the L-isoproterenol was thoroughly washed off with Kreb's solution to recover the right atria's heart rate stability. After the equilibrum was reached again for at least 60 minutes, different concentrations (10^−7, 10^−6, 10^−5 M) of compounds were added. 30 minutes later, cumulative administration of L-isoproterenol from 1×10^−10˜3×10^−10 M were carried out again, and another new cumulative dose-response curve was obtained. Administration of L-isoproterenol started from concentration 1×10^−10 M, and the concentration was raised 0.5 log each time for a total of six times. Cumulative administration interval was when the previous concentration reached its greatest effect, the next concentration would be immediately given. […] In other groups of rats, after separate administration of test compounds, their pA2 values were obtained.
pA2=−Log KB Log(DRADJ−1)=n log[B]−LogKB

[2] = tested on: β1-adrenoceptor (right atrium); experiment: β1-adrenoceptor antagonism, spontaneously beating right atrium, pA2 vs L-isoproterenol; details: for β1/β2 Ratio: antilogarithm of difference between mean pA2 of right atrium and trachea; for β1 pA2 value, Right atrium: Schild plot, mean ± SEM of six to eight experiments
Description: The spontaneously-beating right atria was clipped on both end by heart shaped clips, where one end was fixed at the bottom of 10 ml of tissue bath made of physiological saline solution, and temperature maintained at 37° C. The other end of the atria was connected to a force transducer, and isometric contractions and beating rate of the right atria were recorded by COULBOURN AT-High-Speed VideoFigure. After the samples were given 250 mg of contractions and reach equilibrium the following experiments were carried out:
as §1
pA2=−Log KB Log(DRADJ−1)=n log[B]−LogKB

[3] = biological target: T1, angiotensin converting enzyme (ACE) (Rattus norvegicus, UniProt P47820); experiment: ACE activity value on tissue (rat lung membrane, Hip-His-Leu, fluorometric); assay type: biochemical; details: mean of three samples
T1 construct: Centrifuged 250-300 mg lung tissue; from tissue; host or cells: rat lung membrane fraction
T1 sequence (P47820 36-1313): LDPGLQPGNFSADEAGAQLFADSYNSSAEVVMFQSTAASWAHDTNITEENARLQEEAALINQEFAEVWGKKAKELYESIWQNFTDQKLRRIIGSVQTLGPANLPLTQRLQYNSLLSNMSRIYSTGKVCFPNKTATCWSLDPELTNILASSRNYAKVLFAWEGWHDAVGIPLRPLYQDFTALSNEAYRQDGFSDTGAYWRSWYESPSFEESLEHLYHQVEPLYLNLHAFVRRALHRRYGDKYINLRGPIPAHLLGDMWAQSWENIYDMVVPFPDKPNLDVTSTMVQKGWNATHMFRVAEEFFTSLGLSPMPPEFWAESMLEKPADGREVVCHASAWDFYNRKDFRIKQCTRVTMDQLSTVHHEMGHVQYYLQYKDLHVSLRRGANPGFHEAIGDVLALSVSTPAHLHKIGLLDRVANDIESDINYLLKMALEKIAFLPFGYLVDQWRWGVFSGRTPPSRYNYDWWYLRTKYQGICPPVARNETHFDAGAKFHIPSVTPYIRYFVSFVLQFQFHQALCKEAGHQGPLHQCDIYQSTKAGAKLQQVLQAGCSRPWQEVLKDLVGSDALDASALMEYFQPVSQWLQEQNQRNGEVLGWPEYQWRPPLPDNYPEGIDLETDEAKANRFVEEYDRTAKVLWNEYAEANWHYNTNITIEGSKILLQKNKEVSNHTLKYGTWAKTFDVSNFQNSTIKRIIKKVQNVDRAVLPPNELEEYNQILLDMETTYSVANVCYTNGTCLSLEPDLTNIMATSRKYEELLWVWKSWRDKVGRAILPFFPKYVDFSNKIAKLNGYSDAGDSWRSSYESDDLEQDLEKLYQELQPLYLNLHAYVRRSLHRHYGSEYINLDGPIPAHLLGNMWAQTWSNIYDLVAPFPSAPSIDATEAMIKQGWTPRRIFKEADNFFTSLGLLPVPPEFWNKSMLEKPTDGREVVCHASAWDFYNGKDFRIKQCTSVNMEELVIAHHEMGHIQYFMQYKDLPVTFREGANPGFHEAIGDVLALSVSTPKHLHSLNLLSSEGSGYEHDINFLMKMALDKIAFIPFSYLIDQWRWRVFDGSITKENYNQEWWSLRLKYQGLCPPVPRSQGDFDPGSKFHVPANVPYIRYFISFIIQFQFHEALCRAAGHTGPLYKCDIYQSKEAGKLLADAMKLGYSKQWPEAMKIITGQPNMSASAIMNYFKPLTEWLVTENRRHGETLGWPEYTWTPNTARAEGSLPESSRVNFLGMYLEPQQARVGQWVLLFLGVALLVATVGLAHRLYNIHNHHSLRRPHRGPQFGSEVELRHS
Description: Centrifuged 250-300 mg lung tissue, 3 ml extracted liquid (10 mmol/L HEPES, 125 mmol/L NaCl, pH7.4) under 12000 g for 20 minutes at 4° C. by Teflon-glass homogenizer, the cell membrane was obtained. The 3 ml homogenized liquid was added into twice, before and after centrifuged. Then the Lowry's method was adopted to determine the protein content in the membrane. Mixing 15 minute of liquid and 30 mmol/L Hip-His-Leu solution at 37° C. Fluorometric was used to determine the Hippurate content. test compounds (10^−8M, 10^−7M, 10^−6M) dissolved in PBS normal saline and used as control group. Then ACE activity inhibition rate was determined.

[4] = tested on: blood pressure of normotensive male Wistar rats; experiment: Heart rate and blood pressure in living rat (i.v., anaesthetized); assay type: in vivo; details: maximal decrease, 2 mg/kg i.v.
Source text: Normotensive Male Wistar rats (NTRs), weighing 200˜300 g were abdominal anaesthetized with pentobarbital sodium. Tracheal was cannulated to maintain normal respiration. Polyethylene tube was inserted into the left femoral vein to facilitate drug administration. A 3-way stopcock was used, with one end comnected to a syringe for drug injection, while the other end was connected to the syringe filled with physiological saline. The latter was used to prevent residual drugs in the polyethylene tube after injection, which would affect experimental accuracy.
The right femoral artery was also inserted with polyethylene, and a 3-way stopcock was used tool, where one end was connected to heparin solution to prevent embolism. The other end was comnected to a Disposable Diaphragm Dome, TA1019, and linked to a pressure transducer (Model P10EZ; Spectramed, Oxnard, Calif., USA). Through an amplifier, a recorder recorded the overall and average arterial pressure; heart rate to evaluate the effect of drug on blood pressure and heart rate. Different concentrations 0.1, 1.0, 2.0, 3.0 mg/kg of test compounds were given to the rats via femoral vein and the differences in the heart rate and blood pressure were compared. Table 2 shown maximal decrease of blood pressure affect of compounds after given 2.0 mg/kg test compounds to the rats.

Compound	β2 pA2 value, Trachea [1]	β1/β2 Ratio [2]	β1 pA2 value, Right atrium [2]	Inhibitory activity of ACE, In Rat lung ([3]; 10^−6M)	Inhibitory activity of ACE, In Rat lung ([3]; 10^−7M)	Inhibitory activity of ACE, In Rat lung ([3]; 10^−8M)	Decrease of blood pressure [4]
CCOC(=O)C(CCc1ccc(OCC(O)CNCCOc2ccccc2OC)cc1)NC(C)C(=O)N1CCCC1C(=O)O (mixture of isomers) [compound 6, Labetapril]	5.43	1.4	5.41	84%	72%	33%	65 ± 9.2 mmHg
CCOC(=O)C(CCc1ccccc1)NC(C)C(=O)N1CCCC1C(=O)OCc1ccc(OCC(O)CNC(C)(C)C)c(OC)c1 (centres unmarked) [compound 7, Vanynolpril]	5.64	1.9	5.87	81%	68%	31%	55 ± 6.3 mmHg
